Molecules are shown by their SMILES. Calls of active or inactive are those of the source. The rule behind the calls is not given here.

This note sets out measurements from ChEMBL document CHEMBL3045568, “Novel 2-pyrazoline derivatives as potential anticonvulsant agents” (Med Chem Res, 2013).

The test system of series [1] is Mus musculus. Put plainly: Anticonvulsant activity in albino Mus musculus (mouse) assessed as protection against subcutaneous pentylenetetrazol-induced seizures at 30 mg/kg, ip after 4 hr relative to control. Format: functional, organism-based. Details: dose 30 mg/kg.
Series [2] relates to Mus musculus. Put plainly: Anticonvulsant activity in albino Mus musculus (mouse) assessed as protection against subcutaneous pentylenetetrazol-induced seizures at 100 mg/kg, ip after 0.5 hr relative to control. Format: functional, organism-based. Details: dose 100 mg/kg.
The subject of series [3] is Mus musculus. The series can be described thus: Anticonvulsant activity in albino Mus musculus (mouse) assessed as protection against maximal electroshock-induced seizures at 30 mg/kg, ip after 0.5 hr relative to control. The class given is functional, organism-based. Details: dose 30 mg/kg.
The test system of series [4] is Mus musculus. Put plainly: Anticonvulsant activity in albino Mus musculus (mouse) assessed as protection against subcutaneous pentylenetetrazol-induced seizures at 30 mg/kg, ip after 0.5 hr relative to control. The class given is functional, organism-based. Details: dose 30 mg/kg.
Series [5] relates to Mus musculus. Put plainly: Anticonvulsant activity in albino Mus musculus (mouse) assessed as protection against subcutaneous pentylenetetrazol-induced seizures at 100 mg/kg, ip after 4 hr relative to control. Details: dose 100 mg/kg. Format: functional, organism-based.
For series [6], the system named is Mus musculus. The series can be described thus: Neurotoxicity in albino Mus musculus (mouse) assessed as motor impairment at 300 mg/kg, ip after 0.5 hr relative to control. The class given is toxicity, organism-based. Details: dose 300 mg/kg, route intraperitoneal. Particulars: in vivo.
The test system of series [7] is Mus musculus. Put plainly: Anticonvulsant activity in albino Mus musculus (mouse) assessed as protection against maximal electroshock-induced seizures at 100 mg/kg, ip after 4 hr relative to control. The class given is functional, organism-based. Details: dose 100 mg/kg. (In general: Protection in the maximal electroshock model is a classic sign of anticonvulsant action.)

Series [8] concerns Mus musculus. The series can be described thus: Neurotoxicity in albino Mus musculus (mouse) assessed as motor impairment at 30 mg/kg, ip after 4 hr relative to control. Format: toxicity, organism-based. Details: dose 30 mg/kg, route intraperitoneal. Conditions: in vivo.
Series [9] deals with Mus musculus. Put plainly: Anticonvulsant activity in albino Mus musculus (mouse) assessed as protection against subcutaneous pentylenetetrazol-induced seizures at 300 mg/kg, ip after 4 hr relative to control. Format: functional, organism-based. Details: dose 300 mg/kg.
Series [10] in a line: Partition coefficient, log P of the compound. The class given is physicochemical. Particulars: octanol/water.
In series [11] the test system is Mus musculus. Put plainly: Anticonvulsant activity in albino Mus musculus (mouse) assessed as protection against maximal electroshock-induced seizures at 30 mg/kg, ip after 4 hr relative to control. Details: dose 30 mg/kg. The class given is functional, organism-based.
Series [12] concerns Mus musculus. The series can be described thus: Anticonvulsant activity in albino Mus musculus (mouse) assessed as protection against subcutaneous pentylenetetrazol-induced seizures at 300 mg/kg, ip after 0.5 hr relative to control. Format: functional, organism-based. Details: dose 300 mg/kg.
Series [13] has as its system Mus musculus. Put plainly: Anticonvulsant activity in albino Mus musculus (mouse) assessed as protection against maximal electroshock-induced seizures at 100 mg/kg, ip after 0.5 hr relative to control. Format: functional, organism-based. Details: dose 100 mg/kg.
The test system of series [14] is Mus musculus. The series can be described thus: Anticonvulsant activity in albino Mus musculus (mouse) assessed as protection against maximal electroshock-induced seizures at 300 mg/kg, ip after 4 hr relative to control. The class given is functional, organism-based. Details: dose 300 mg/kg.
In series [15] the test system is Mus musculus. Put plainly: Anticonvulsant activity in albino Mus musculus (mouse) assessed as protection against maximal electroshock-induced seizures at 300 mg/kg, ip after 0.5 hr relative to control. The class given is functional, organism-based. Details: dose 300 mg/kg.
Series [16] has as its system Mus musculus. The series can be described thus: Neurotoxicity in albino Mus musculus (mouse) assessed as motor impairment at 100 mg/kg, ip after 0.5 hr relative to control. Details: dose 100 mg/kg, route intraperitoneal. Format: toxicity, organism-based. Conditions: in vivo.
The subject of series [17] is Mus musculus. Put plainly: Neurotoxicity in albino Mus musculus (mouse) assessed as motor impairment at 100 mg/kg, ip after 4 hr relative to control. Particulars: in vivo. The class given is toxicity, organism-based. Details: dose 100 mg/kg, route intraperitoneal.
Series [18] relates to Mus musculus. Put plainly: Neurotoxicity in albino Mus musculus (mouse) assessed as motor impairment at 30 mg/kg, ip after 0.5 hr relative to control. Conditions: in vivo. The class given is toxicity, organism-based. Details: dose 30 mg/kg, route intraperitoneal.
The subject of series [19] is Mus musculus. The series can be described thus: Neurotoxicity in albino Mus musculus (mouse) assessed as motor impairment at 300 mg/kg, ip after 4 hr relative to control. Format: toxicity, organism-based. Details: dose 300 mg/kg, route intraperitoneal. Particulars: in vivo.

In general, logP refers to the decadic logarithm of the partition coefficient of the neutral form, usually between octanol and water. For `NC(=S)N1N=C(c2ccccn2)CC1c1ccc(OCc2ccccc2)cc1` (stereo not given), the outcome with Mus musculus [1], in the series with Mus musculus [2], with Mus musculus [3], with Mus musculus [4], in the series on Mus musculus [5] and in the series on Mus musculus [7] was inactive. For the same compound, the result with Mus musculus [9], in the series with Mus musculus [11], with Mus musculus [12], in the series on Mus musculus [13], in the series on Mus musculus [14] and with Mus musculus [15] was inactive. Also, the Activity result in the series with Mus musculus [6] was “Toxic”; in the series on Mus musculus [8], “Non-toxic”; with Mus musculus [16], “Toxic”. In addition, the logP in [10] is 1.17.
With `CCNC(=S)N1N=C(c2ccccn2)CC1c1cccc(Cl)c1` (stereo not given), the result in the series on Mus musculus [1], in the series with Mus musculus [2], in the series with Mus musculus [3], in the series on Mus musculus [4], with Mus musculus [5] and in the series on Mus musculus [7] was inactive. Also, the outcome with Mus musculus [9], in the series on Mus musculus [11] and in the series on Mus musculus [14] was inactive. The Activity entry with Mus musculus [17], in the series on Mus musculus [18], in the series on Mus musculus [8], in the series on Mus musculus [19] and in the series with Mus musculus [16] was “Non-toxic” each time. This compound also returned a logP in series [10] of 3.2. The result with Mus musculus [12], with Mus musculus [13] and in the series on Mus musculus [15] was Active.
As for `CCNC(=S)N1N=C(c2ccccn2)CC1c1ccc(OC)cc1` (stereo not given), the result with Mus musculus [1], with Mus musculus [3], in the series on Mus musculus [5], in the series on Mus musculus [7], in the series on Mus musculus [11] and with Mus musculus [13] was inactive. Further, the result with Mus musculus [14] and in the series with Mus musculus [15] was inactive. For the same compound, the outcome in the series with Mus musculus [2], in the series on Mus musculus [4], with Mus musculus [9] and with Mus musculus [12] was Active. Further, the Activity result with Mus musculus [6], in the series on Mus musculus [17], in the series with Mus musculus [18], in the series on Mus musculus [8], in the series on Mus musculus [19] and in the series on Mus musculus [16] was “Non-toxic” in each case. Also, the logP in series [10] amounted to 2.92.
Take `CCNC(=S)N1N=C(c2ccccn2)CC1c1ccc(Cl)cc1` (stereo not given): the outcome in the series with Mus musculus [1], in the series with Mus musculus [2], with Mus musculus [3], with Mus musculus [4], in the series on Mus musculus [5] and in the series on Mus musculus [7] was inactive. Besides, the result in the series on Mus musculus [9], with Mus musculus [11] and in the series with Mus musculus [14] was inactive. The Activity entry in the series on Mus musculus [6], with Mus musculus [17], in the series with Mus musculus [18], with Mus musculus [8], in the series with Mus musculus [19] and with Mus musculus [16] was “Non-toxic” in each case. For the same compound, the lipophilicity (logP) in series [10] worked out at 3.64. Also, the outcome in the series on Mus musculus [12], with Mus musculus [13] and with Mus musculus [15] was Active.
Regarding `CCNC(=S)N1N=C(c2ccccn2)CC1c1ccc(OCc2ccccc2)cc1` (stereo not given), the outcome with Mus musculus [1], in the series with Mus musculus [2], in the series on Mus musculus [3], in the series with Mus musculus [4], in the series with Mus musculus [5] and with Mus musculus [7] was inactive. For the same compound, the outcome with Mus musculus [9], in the series on Mus musculus [11] and with Mus musculus [14] was inactive. Further, the Activity result in the series on Mus musculus [17], in the series on Mus musculus [18], in the series with Mus musculus [8], in the series on Mus musculus [19] and with Mus musculus [16] was “Non-toxic” in each case. Also, the logP in series [10] worked out at 1.46. For the same compound, the result in the series with Mus musculus [12], in the series with Mus musculus [13] and in the series with Mus musculus [15] was Active.
With `NC(=S)N1N=C(c2ccccn2)CC1c1cccc(Cl)c1` (stereo not given), the outcome in the series with Mus musculus [1], in the series on Mus musculus [2], in the series on Mus musculus [4], with Mus musculus [5], in the series with Mus musculus [7] and in the series with Mus musculus [11] was inactive. Besides, the outcome in the series on Mus musculus [3], in the series on Mus musculus [9], in the series with Mus musculus [12], in the series with Mus musculus [13], with Mus musculus [14] and in the series with Mus musculus [15] was Active. Also, the Activity entry with Mus musculus [17], in the series with Mus musculus [18], in the series on Mus musculus [8], in the series with Mus musculus [19] and with Mus musculus [16] was “Non-toxic” throughout. In addition, the logP in series [10] was 4.15.
In the case of `CCNC(=S)N1N=C(c2ccccn2)CC1c1cccc2ccccc12` (stereo not given), the outcome in the series with Mus musculus [1], with Mus musculus [3], with Mus musculus [4], with Mus musculus [5], with Mus musculus [7] and in the series with Mus musculus [11] was inactive. The result in the series with Mus musculus [2], in the series with Mus musculus [9], with Mus musculus [12], in the series on Mus musculus [13], in the series on Mus musculus [14] and in the series on Mus musculus [15] was Active. The Activity entry in the series with Mus musculus [6], in the series with Mus musculus [17], in the series with Mus musculus [18], in the series on Mus musculus [8], with Mus musculus [19] and in the series with Mus musculus [16] was “Non-toxic” throughout. This compound also registered a logP in series [10] of 4.7.
For `NC(=S)N1N=C(c2ccccn2)CC1c1ccc(Cl)cc1` (stereo not given), the result in the series with Mus musculus [1], in the series with Mus musculus [2], with Mus musculus [3], in the series with Mus musculus [4], with Mus musculus [5] and in the series on Mus musculus [7] was inactive. Moreover, the result with Mus musculus [9] and with Mus musculus [11] was inactive. Besides, the Activity result in the series with Mus musculus [17], in the series with Mus musculus [18], in the series with Mus musculus [8], with Mus musculus [19] and in the series with Mus musculus [16] was “Non-toxic” each time. Further, the lipophilicity (logP) in series [10] is 4.21. The outcome in the series on Mus musculus [12], in the series on Mus musculus [13], in the series on Mus musculus [14] and in the series on Mus musculus [15] was Active.
